Structures are written as SMILES.

Chain of full length MPS1 (P33981 whole entry): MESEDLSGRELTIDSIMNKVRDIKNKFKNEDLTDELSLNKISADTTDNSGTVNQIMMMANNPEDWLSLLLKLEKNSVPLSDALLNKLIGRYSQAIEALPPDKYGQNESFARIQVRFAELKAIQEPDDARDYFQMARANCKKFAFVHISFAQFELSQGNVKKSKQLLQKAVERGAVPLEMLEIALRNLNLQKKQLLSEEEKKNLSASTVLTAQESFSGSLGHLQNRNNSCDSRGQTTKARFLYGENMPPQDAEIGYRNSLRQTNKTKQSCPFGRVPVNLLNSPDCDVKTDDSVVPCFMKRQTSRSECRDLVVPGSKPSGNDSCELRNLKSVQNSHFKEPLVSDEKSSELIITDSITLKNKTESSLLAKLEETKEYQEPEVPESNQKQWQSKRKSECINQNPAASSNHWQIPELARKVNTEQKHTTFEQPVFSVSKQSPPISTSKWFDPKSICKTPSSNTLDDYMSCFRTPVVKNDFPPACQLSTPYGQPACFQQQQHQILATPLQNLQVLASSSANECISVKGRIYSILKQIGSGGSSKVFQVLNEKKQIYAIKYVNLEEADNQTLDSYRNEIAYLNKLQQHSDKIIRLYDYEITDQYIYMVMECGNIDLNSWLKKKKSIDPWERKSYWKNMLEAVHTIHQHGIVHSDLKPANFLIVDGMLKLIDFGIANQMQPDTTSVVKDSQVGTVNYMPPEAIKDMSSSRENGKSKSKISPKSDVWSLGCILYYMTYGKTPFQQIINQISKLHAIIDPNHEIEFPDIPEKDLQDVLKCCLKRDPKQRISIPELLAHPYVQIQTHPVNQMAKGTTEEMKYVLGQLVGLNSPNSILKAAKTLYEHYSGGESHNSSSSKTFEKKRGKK

For this experiment, the target named is full length MPS1 (Homo sapiens (Human), UniProt P33981). Nature of the experiment: Measurement of inhibition of MPS1 kinase (Caliper EZ reader, fluorescent labelled peptide H236). It counts as biochemical. The following applies: full length MPS1 12.5 nM or 3 nM, peptide H236 5 μM, ATP 10 μM, 60 min at room temperature. How it is done:
The reaction was carried out for 60 min at room temperature and stopped by the addition of buffer (10 μl) containing 20 mM EDTA, 0.05% (v/v) Brij-35, in 0.1M HEPES-buffered saline (Free acid, Sigma, UK). The plate was read on a Caliper EZ reader II (Caliper Life Sciences).
The reader provides a Software package (‘Reviewer’) which converts the peak heights into % conversion by measuring both product and substrate peak and also allows selection of control well which represent 0% and 100% inhibition respectively. The % inhibition of the compounds is calculated relative to the means of selected control wells. IC50s are determined by testing the compounds at a range of concentrations from 0.25 nM-100 μM. The % inhibitions at each concentration are then fitted to a 4 parameter logistic fit: y=(a+((b−a)/(1+((c/x^d)))) where a=asym min, b=asym max, c=IC50 and d=hill coefficient
On to `COc1cc(C(=O)N2CC(OC)C2)ccc1Nc1cc2nc(-c3cnn(CC(C)(C)O)c3)ccc2cn1` [Example 104, (4-(2-(1-(2-Hydroxy-2-methylpropyl)-1H-pyrazol-4-yl)-1,6-naphthyridin-7-ylamino)-3-methoxyphenyl)(3-methoxyazetidin-1-yl)methanone], for which half-maximal inhibition (IC50) was put at 2 nM.
With `COc1cc(C(=O)N2CC(OC)C2)ccc1Nc1cc2cc(-c3cnn(C4CCCCC4O)c3)ccc2cn1` (racemic) [Example 85, (4-((6-(1-(2-Hydroxycyclohexyl)-1H-pyrazol-4-yl)isoquinolin-3-yl)amino)-3-methoxyphenyl)(3-methoxyazetidin-1-yl)methanone] the figure was 15 nM; with `COc1cc(C(=O)N2CC(F)(F)C2)ccc1Nc1cc2cc(-c3cnn(CC(C)(C)O)c3)ccc2cn1` [Example 93, (3,3-Difluoroazetidin-1-yl)(4-(6-(1-(2-hydroxy-2-methylpropyl)-1H-pyrazol-4-yl)isoquinolin-3-ylamino)-3-methoxyphenyl)methanone], 5 nM; with `COc1cc(C(=O)N2CC(OC)C2)ccc1Nc1cc2cc(-c3cnn(CC(C)(C)O)c3)ccc2cn1` [Example 46, (4-(6-(1-(2-Hydroxy-2-methylpropyl)-1H-pyrazol-4-yl)isoquinolin-3-ylamino)-3-methoxy-phenyl)(3-methoxyazetidin-1-yl)methanone], 2 nM.
Then `COc1cc(-c2cnn(C)c2CO)ccc1Nc1cc2cc(-c3cnn(CC(C)(C)O)c3)ccc2cn1` [Example 36, 1-(4-(3-((4-(5-(Hydroxymethyl)-1-methyl-1H-pyrazol-4-yl)-2-methoxyphenyl)amino)-isoquinolin-6-yl)-1H-pyrazol-1-yl)-2-methylpropan-2-ol], with 3 nM; and `COc1cc(-c2cnc3n2CCNC3)ccc1Nc1cc2cc(-c3cnn(CC(C)(C)O)c3)ccc2cn1` [Example 111, 1-(4-(3-((2-Methoxy-4-(5,6,7,8-tetrahydroimidazo[1,2-a]pyrazin-3-yl)phenyl)amino)-isoquinolin-6-yl)-1H-pyrazol-1-yl)-2-methylpropan-2-ol], with 3 nM; and `COc1cc(-c2cnc(C)n2C)ccc1Nc1cc2cc(-c3cnn(CC4CCOCC4)c3)ccc2cn1` [Example 1, N-(4-(1,2-dimethyl-1H-imidazol-5-yl)-2-methoxyphenyl)-6-(1-((tetrahydro-2H-pyran-4-yl)methyl)-1H-pyrazol-4-yl)isoquinolin-3-amine], with 2 nM.
Regarding `COc1cc(C#N)ccc1Nc1cc2cc(-c3cnn(CC(C)(C)O)c3)ccc2cn1` [Example 49, 4-(6-(1-(2-Hydroxy-2-methylpropyl)-1H-pyrazol-4-yl)isoquinolin-3-ylamino)-3-methoxy-benzonitrile], the IC50 (in general, the concentration at which inhibition is half-maximal) was found to be 11 nM.
With `COc1cc(-c2cnc(C)n2C)ccc1Nc1cc2cc(-c3cnn(CC4CC4)c3)ccc2cn1` [Example 2, 6-(1-(Cyclopropylmethyl)-1H-pyrazol-4-yl)-N-(4-(1,2-dimethyl-1H-imidazol-5-yl)-2-methoxyphenyl)isoquinolin-3-amine] the figure was 1 nM; with `COc1cc(C(=O)N2CC(OC)C2)ccc1Nc1cc2cc(-c3cnn(CC(O)C(C)C)c3)ccc2cn1` (racemic) [Example 73, (4-((6-(1-(2-Hydroxy-3-methylbutyl)-1H-pyrazol-4-yl)isoquinolin-3-yl)amino)-3-methoxy-phenyl)(3-methoxyazetidin-1-yl)methanone], 4 nM; with `COc1cc(-c2cnc(C)n2C)ccc1Nc1cc2cc(-c3sc(C)nc3C)ccc2cn1` [Example 13, N-(4-(1,2-dimethyl-1H-imidazol-5-yl)-2-methoxyphenyl)-6-(2,4-dimethylthiazol-5-yl)isoquinolin-3-amine], 97 nM.
Then `COc1cc(-c2cnc(C)n2C)ccc1Nc1cc2cc(-c3cccnc3)ccc2cn1` [Example 16, N-(4-(1,2-dimethyl-1H-imidazol-5-yl)-2-methoxyphenyl)-6-(pyridin-3-yl)isoquinolin-3-amine], with 3 nM.
Then `COc1cc(-c2cnn(C)c2)ccc1Nc1cc2nc(-c3cnn(C)c3)ccc2cn1` [Example 100, N-(2-Methoxy-4-(1-methyl-1H-pyrazol-4-yl)phenyl)-2-(1-methyl-1H-pyrazol-4-yl)-1,6-naphthyridin-7-amine], with 6 nM.
`COc1cc(-c2nncn2C)ccc1Nc1cc2nc(-c3cnn(CC(C)(C)O)c3)ccc2cn1` [Example 105, 1-(4-(7-(2-Methoxy-4-(4-methyl-4H-1,2,4-triazol-3-yl)phenylamino)-1,6-naphthyridin-2-yl)-1H-pyrazol-1-yl)-2-methylpropan-2-ol] registered an IC50 of 1 nM.
Then `COCCn1cc(-c2ccc3cnc(Nc4ccc(-c5cnc(C)n5C)cc4OC)cc3c2)cn1` [Example 14, N-(4-(1,2-dimethyl-1H-imidazol-5-yl)-2-methoxyphenyl)-6-(1-(2-methoxyethyl)-1H-pyrazol-4-yl)isoquinolin-3-amine], with 20 nM; and `COc1cc(-c2cnn(C)c2)ccc1Nc1cc2nc(-c3cnn(CC(C)(C)O)c3)ccc2cn1` [Example 101, 1-(4-(7-(2-Methoxy-4-(1-methyl-1H-pyrazol-4-yl)phenylamino)-1,6-naphthyridin-2-yl)-1H-pyrazol-1-yl)-2-methylpropan-2-ol], with 3 nM; and `COc1cc(-c2nncn2C)ccc1Nc1cc2cc(-c3cnn(CC(C)(C)O)c3)ccc2cn1` [Example 41, 1-(4-(3-((2-Methoxy-4-(4-methyl-4H-1,2,4-triazol-3-yl)phenyl)amino)isoquinolin-6-yl)-1H-pyrazol-1-yl)-2-methylpropan-2-ol], with 1 nM.
Then `COc1cc(-c2cnn(C)c2C)ccc1Nc1cc2cc(-c3cnn(CC(C)(C)O)c3)ccc2cn1` [Example 53, 1-(4-(3-(4-(1,5-Dimethyl-1H-pyrazol-4-yl)-2-methoxyphenylamino)isoquinolin-6-yl)-1H-pyrazol-1-yl)-2-methylpropan-2-ol], with 4 nM; and `COc1cc(-c2cnc(C)n2C)ccc1Nc1cc2cc(-c3cnn(C)c3CO)ccc2cn1` [Example 34, (4-(3-((4-(1,2-Dimethyl-1H-imidazol-5-yl)-2-methoxyphenyl)amino)isoquinolin-6-yl)-1-methyl-1H-pyrazol-5-yl)methanol], with 3 nM.
With `COc1cc(C(=O)N2CC(OC)C2)ccc1Nc1cc2cc(-c3cnn(CC(C)(C)OC)c3)ccc2cn1` [Example 74, (3-Methoxy-4-((6-(1-(2-methoxy-2-rnethylpropyl)-1H-pyrazol-4-yl)isoquinolin-3-yl)amino)-phenyl)(3-methoxyazetidin-1-yl)methanone] the figure was 3 nM; with `COc1cc(-c2cnc(C)n2C)ccc1Nc1cc2cc(-c3cnn(CC4COC4)c3)ccc2cn1` [Example 37, N-(4-(1,2-Dimethyl-1H-imidazol-5-yl)-2-methoxyphenyl)-6-(1-(oxetan-3-ylmethyl)-1H-pyrazol-4-yl)isoquinolin-3-amine], 5 nM.
`COc1cc(-c2cnc(C)n2C)ccc1Nc1cc2cc(-c3cnn(CC4(C)COC4)c3)ccc2cn1` [Example 30, N-(4-(1,2-Dimethyl-1H-imidazol-5-yl)-2-methoxyphenyl)-6-(1-((3-methyloxetan-3-yl)methyl)-1H-pyrazol-4-yl)isoquinolin-3-amine]: the IC50 turned out to be 2 nM.
Then `COc1cc(-c2ncnn2C)ccc1Nc1cc2cc(-c3cnn(CC(C)(C)O)c3)ccc2cn1` [Example 64, 1-(4-(3-((2-Methoxy-4-(1-methyl-1H-1,2,4-triazol-5-yl)phenyl)amino)isoquinolin-6-yl)-1H-pyrazol-1-yl)-2-methylpropan-2-ol], with 1 nM; and `COc1cc(-c2cnc(C)n2C)ccc1Nc1cc2cc(-c3ccc(N(C)C)nc3)ccc2cn1` [Example 8, N-(4-(1,2 dimethyl-1H-imidazol-5-yl)-2-methoxyphenyl)-6-(6-(dimethylamino)pyridin-3-yl)isoquinolin-3-amine], with 108 nM; and `COc1cc(-c2cnc(C)n2C)ccc1Nc1cc2cc(-c3cncnc3)ccc2cn1` [Example 17, N-(4-(1,2-dimethyl-1H-imidazol-5-yl)-2-methoxyphenyl)-6-(pyrimidin-5-yl)isoquinolin-3-amine], with 14 nM.
On to `Cc1ncc(-c2ccc(Nc3cc4cc(-c5cnn(C)c5)ccc4cn3)c(Cl)c2)n1C` [Example 22, N-(2-chloro-4-(1,2-dimethyl-1H-imidazol-5-yl)phenyl)-6-(1-methyl-1H-pyrazol-4-yl)isoquinolin-3-amine], for which inhibition was half-maximal at 4 nM (IC50).
The compound `COc1cc(-c2cnc(C)n2C)ccc1Nc1cc2cc(-c3ccc(N(C)C(=O)OC(C)(C)C)nc3)ccc2cn1` [Example 12, tert-Butyl (5-(3-((4-(1,2-dimethyl-1H-imidazol-5-yl)-2-methoxyphenyl)amino)isoquinolin-6-yl)pyridin-2-yl)(methyl)carbamate] gave an IC50 of 713 nM.
With `COc1cc(-c2cnc(C)n2C)ccc1Nc1cc2cc(C(=O)N(C)C)ccc2cn1` [Example 89, 3-((4-(1,2-Dimethyl-1H-imidazol-5-yl)-2-methoxyphenyl)amino)-N,N-dimethylisoquinoline-6-carboxamideone] the figure was 472 nM.
With `COCC(Cn1cc(-c2ccc3cnc(Nc4ccc(C(=O)N5CC(OC)C5)cc4OC)cc3c2)cn1)OC` (racemic) [Example 79, (4-((6-(1-(2,3-Dimethoxypropyl)-1H-pyrazol-4-yl)isoquinolin-3-yl)amino)-3-methoxyphenyl)(3-methoxyazetidin-1-yl)methanone] the figure was 9 nM.
